Where two headings read alike, the source gives them in different places.
What was measured:
[1] = test system: SKOV3 cells (human ovarian cancer-derived cell line); experiment: Cell proliferation activity in three-dimensional medium FCeM, ATP assay (Experimental Example 1); format: cell-based; settings: SKOV3, 3D medium FCeM, 4 days, DMSO control = 100%, average of two tests; for proliferation rate (%): compound 5 μM
Description: A cell proliferation promoting effect when the compound to be used in the present invention was added to a three-dimensional medium was studied. Specifically, precultured (adhesion cultured) SKOV3 cells (human ovarian cancer-derived cell line) were recovered and suspended in a three-dimensional cell culture medium (“FCeM (registered trade mark)” (Nissan chemical corporation)) to prepare a cell suspension. […] The cell suspension seeded in the plate was stood overnight at 37° C., 5% CO2. Then, a DMSO diluted solution (4.44 μL) of the compound to be used in the present invention was added at a final concentration of 5 μM (or two steps of […] and 10 μM) (no stirring after addition). After addition of each compound, the mixtures were stood for 4 days at 37° C., 5% CO2. […] The luminescence intensity (RLU value) was measured by FlexStation3 (manufactured by Molecular Devices), and cell proliferation was evaluated.
The proliferation rate was calculated based on the control (cells added with DMSO without containing the compound to be used in the present invention) as the standard (100%). The values shown in the tables are average values of the results of two tests.

[2] = test system: human ovarian cancer cell line SKOV3; experiment: Action on SKOV3 cell-2: 3D (deacylated gellan gum) and 2D culture, EGF medium, ATP assay (Experimental Example 3); settings: for relative value of RLU (number of viable cells) / viability at 1 µM / viability at 5 µM / viability at 10 µM / viability at 20 µM: 4 days, compound non-addition = 100%; for viability at 1 µM / viability at 5 µM / viability at 10 µM / viability at 20 µM: Homo sapiens, SK-OV-3, 96 h
Description: According to the method of patent document 1 (WO 2014/017513), a composition of McCoy's 5a medium (manufactured by Sigma-Aldrich) containing 0.015% (w/v) deacylated gellan gum (KELCOGEL CG-LA, manufactured by Sansho Co., Ltd.) and 15% (v/v) FBS, 30 ng/mL human EGF (manufactured by PEPROTECH) was prepared using FCeM-series Preparation Kit (manufactured by Wako Pure Chemical Industries, Ltd.). In a single layer culture, a non-addition medium composition not containing deacylated gellan gum was prepared. Then, human ovarian cancer cell line SKOV3 (manufactured by DS PHARMA BIO MEDICAL) was suspended in the above-mentioned medium composition added with deacylated gellan gum, and dispensed into the wells of a 384 well flat bottom Ultr-low Attachment surface microplate (manufactured by Corning Incorporated, #3827) at 1000 cells/36 μL/well (three-dimensional culture (3D)). In a single layer culture (2D), human ovarian cancer cell line SKOV3 was suspended in the above-mentioned medium composition not containing deacylated gellan gum, and dispensed into the wells of a 384 well flat bottom microplate (manufactured by Corning Incorporated, #3712) at 400 cells/36 μL per well. After dispensing, the compound to be used in the present invention dissolved in dimethyl sulfoxide (DMSO) was added by 4 μL each at a final concentration of 0, 1, 5, 10, 20 μM, and continuously cultured for 4 days. Each plate was cultured in a standing state in a CO2 incubator (37° C., 5% CO2) for 4 days. An ATP reagent (40 μL) (CellTiter-Glo (registered trade mark) Luminescent Cell Viability Assay, manufactured by Promega) was added to the culture medium on day 4, and the mixture was stirred by a plateshaker (manufactured by AS ONE Corporation, Micro plate mixer NS-P) at room temperature for 15 min. The luminescence intensity (RLU value) was measured by EnSpire (manufactured by Perkin Elmer) and the luminescence value of the medium alone was subtracted to measure the number of viable cells.

hiPS cell line 253G1 = experiment: Human pluripotent stem cell (hiPS cell), EZSPHERE plate, ATP assay (Experimental Example 13); format: cell-based
Description: hiPS cell line 253G1 (purchased from RIKEN) was cultured on a dish coated with vitronectin VTN-N (manufactured by Thermo Fisher Scientific) using mTeSR1 (registered trade mark) medium (manufactured by STEMCELL Technologies). The above-mentioned cells in the proliferation phase were washed with PBS (manufactured by Fujifilm Corporation Wako Pure Chemical Industries, Ltd.), TrypLE Select (registered trade mark) (manufactured by Thermo Fisher Scientific) was added and the mixture was incubated at 37° C. for 3 min to remove the detaching solution. The medium was added and the cells were detached by pipetting. Thereafter, the supernatant was removed by centrifugation.
The aforementioned cells were suspended in a medium containing 10 μM Y-27632 (manufactured by Fujifilm Corporation Wako Pure Chemical Industries, Ltd.) and seeded in a 96-well EZSPHERE plate (manufactured by AGC TECHNO GLASS CO., LTD., #4860-900) at a cell concentration of 10000 cells/200 μL/well. […] The amount of each compound solution to be added was 2 μL/well. As a control, a DMSO solution dissolved in a medium was added (DMSO final concentration 0.05%). The medium was exchanged by half the volume every day, and each compound solution was also added to make the compound concentration constant.

[3] = 3D culture (deacylated gellan gum), 1 μM
[4] = 3D culture (deacylated gellan gum), 5 μM
[5] = 3D culture (deacylated gellan gum), 10 μM
[6] = 3D culture (deacylated gellan gum), 20 μM
[7] = single layer culture (2D) of SKOV3 cells
[8] = three-dimensional culture (3D) of SKOV3 cells

## CCOC(=O)C/N=C(\CC)c1ccc(O)c(C)c1O [k-1:A-1]
[1]
  proliferation rate (%) (5 μM): 119.1%
  proliferation rate (%) (10 μM): 119.4%

## CC/C(=N\CC(=O)OCc1ccccc1)c1ccc(O)c(C)c1O [k-1:A-2]
[1]
  proliferation rate (%) (5 μM): 118.8%
  proliferation rate (%) (10 μM): 129.4%

## CCCCCCCC/N=C(\CC)c1ccc(O)c(C)c1O [k-1:A-3]
[1]
  proliferation rate (%) (5 μM): 118.1%
  proliferation rate (%) (10 μM): 112.6%

## CC/C(=N\C(=O)Nc1ccccc1)c1ccc(O)c(C)c1O [k-1:A-5]
[1]
  proliferation rate (%) (5 μM): 113%
  proliferation rate (%) (10 μM): 124.3%

## CCC(=NNC(=O)CNc1ccc(O)cc1)c1ccc(O)c(C)c1O [k-1:D-2]
[2]; 2D single layer culture, 1 μM
  relative value of RLU (number of viable cells): 101%
[2]; 2D single layer culture, 5 μM
  relative value of RLU (number of viable cells): 94%
[2]; 2D single layer culture, 10 μM
  relative value of RLU (number of viable cells): 82%
[2]; 2D single layer culture, 20 μM
  relative value of RLU (number of viable cells): 59%
[2]; [3]
  relative value of RLU (number of viable cells): 116%
[2]; [4]
  relative value of RLU (number of viable cells): 129%
[2]; [5]
  relative value of RLU (number of viable cells): 143%
[2]; [6]
  relative value of RLU (number of viable cells): 126%
[2]; [7]
  cell proliferation promoting effect (in words): a favorable cell proliferation promoting effect was not observed
[2]; [8]
  cell proliferation promoting effect (in words): exhibited cell proliferation promoting effect at a wide concentration range

## CCC(=NNC(=O)CNc1ccccc1C)c1ccc(O)c(C)c1O [k-1:H-2]
[1]
  proliferation rate (%): 147.27%

## CCC(=NNC(=O)CNc1cccc(C)c1)c1ccc(O)c(C)c1O [k-1:H-3]
[1]
  proliferation rate (%): 168.98%

## CCC(=NNC(=O)CNc1ccc(C)cc1)c1ccc(O)c(C)c1O [k-1:H-4]
[1]
  proliferation rate (%): 105.07%

## CCC(=NNC(=O)CNc1ccc(F)cc1)c1ccc(O)c(C)c1O [k-1:H-5]
[1]
  proliferation rate (%): 154.19%

## CCC(=NNC(=O)CNc1cccc2ccccc12)c1ccc(O)c(C)c1O [k-1:H-6]
[1]
  proliferation rate (%): 125.68%

## CCOc1ccc(NCC(=O)NN=C(CC)c2ccc(O)c(C)c2O)cc1 [k-1:H-9]
[1]
  proliferation rate (%): 95.96%

## CCC(=NNC(=O)NC(C)c1cccc(O)c1)c1ccc(O)c(C)c1O (stereo not shown) [k-1:I-10]
[2]; 2D single layer culture, 1 μM
  relative value of RLU (number of viable cells): 99%
[2]; 2D single layer culture, 5 μM
  relative value of RLU (number of viable cells): 98%
[2]; 2D single layer culture, 10 μM
  relative value of RLU (number of viable cells): 99%
[2]; 2D single layer culture, 20 μM
  relative value of RLU (number of viable cells): 100%
[2]; [3]
  relative value of RLU (number of viable cells): 100%
[2]; [4]
  relative value of RLU (number of viable cells): 135%
[2]; [5]
  relative value of RLU (number of viable cells): 181%
[2]; [6]
  relative value of RLU (number of viable cells): 197%
[2]; [7]
  cell proliferation promoting effect (in words): a favorable cell proliferation promoting effect was not observed
[2]; [8]
  cell proliferation promoting effect (in words): exhibited cell proliferation promoting effect at a wide concentration range
hiPS cell line 253G1; hiPS 253G1, EZSPHERE plate, 5 μM, 3 days, RLU of DMSO addition = 100%
  relative value (%): 194%
hiPS cell line 253G1; human pluripotent stem cells under three-dimensional conditions
  proliferation activity (in words): promoted proliferation activity in human pluripotent stem cells

## CC/C(=N\NC(=O)OCc1cccc(O)c1)c1ccc(O)c(C)c1O [k-1:N-1]
[2]; read-out: relative value of RLU (number of viable cells), 2D single layer culture, 1 μM
  viability at 1 µM: 101%
[2]; read-out: relative value of RLU (number of viable cells), 2D single layer culture, 5 μM
  viability at 5 µM: 94%
[2]; read-out: relative value of RLU (number of viable cells), 2D single layer culture, 10 μM
  viability at 10 µM: 89%
[2]; read-out: relative value of RLU (number of viable cells), 2D single layer culture, 20 μM
  viability at 20 µM: 84%
[2]; read-out: relative value of RLU (number of viable cells), 3D culture (deacylated gellan gum), 1 μM
  viability at 1 µM: 101%
[2]; read-out: relative value of RLU (number of viable cells), 3D culture (deacylated gellan gum), 5 μM
  viability at 5 µM: 134%
[2]; read-out: relative value of RLU (number of viable cells), 3D culture (deacylated gellan gum), 10 μM
  viability at 10 µM: 169%
[2]; read-out: relative value of RLU (number of viable cells), 3D culture (deacylated gellan gum), 20 μM
  viability at 20 µM: 186%
[2]; [7]
  cell proliferation promoting effect (in words): a favorable cell proliferation promoting effect was not observed
[2]; [8]
  cell proliferation promoting effect (in words): exhibited cell proliferation promoting effect at a wide concentration range

## CC(=NNC(=O)CNc1ccccc1)c1ccc(O)c(C)c1O [k-2:H-1]
[1]
  proliferation rate (%): 184.61%

## CC(=NNC(=O)CNc1ccccc1C)c1ccc(O)c(C)c1O [k-2:H-2]
[1]
  proliferation rate (%): 131.13%

## CC(=NNC(=O)CNc1cccc(C)c1)c1ccc(O)c(C)c1O [k-2:H-3]
[1]
  proliferation rate (%): 139.33%

## CC(=NNC(=O)CNc1ccc(C)cc1)c1ccc(O)c(C)c1O [k-2:H-4]
[1]
  proliferation rate (%): 128.2%

## CC(=NNC(=O)CNc1ccc(F)cc1)c1ccc(O)c(C)c1O [k-2:H-5]
[1]
  proliferation rate (%): 158.56%

## CC(=NNC(=O)CNc1cccc2ccccc12)c1ccc(O)c(C)c1O [k-2:H-6]
[1]
  proliferation rate (%): 116.79%

## CCC(Nc1ccccc1)C(=O)NN=C(C)c1ccc(O)c(C)c1O (stereo not shown) [k-2:H-7]
[1]
  proliferation rate (%): 201.93%

## CCOc1ccc(NCC(=O)NN=C(C)c2ccc(O)c(C)c2O)cc1 [k-2:H-9]
[1]
  proliferation rate (%): 131.36%

## CCC(=NNC(=O)CNc1ccccc1)c1c(O)cc(O)c(C)c1O [k-3:H-1]
[1]
  proliferation rate (%): 133.76%

## CCC(=NNC(=O)CNc1ccccc1C)c1c(O)cc(O)c(C)c1O [k-3:H-2]
[1]
  proliferation rate (%): 117.84%

## CCC(=NNC(=O)CNc1cccc(C)c1)c1c(O)cc(O)c(C)c1O [k-3:H-3]
[1]
  proliferation rate (%): 134.65%

## CCC(=NNC(=O)CNc1ccc(C)cc1)c1c(O)cc(O)c(C)c1O [k-3:H-4]
[1]
  proliferation rate (%): 135.5%

## CCC(=NNC(=O)CNc1ccc(F)cc1)c1c(O)cc(O)c(C)c1O [k-3:H-5]
[1]
  proliferation rate (%): 141.82%

## CCC(=NNC(=O)CNc1cccc2ccccc12)c1c(O)cc(O)c(C)c1O [k-3:H-6]
[1]
  proliferation rate (%): 134.6%

## CCC(=NNC(=O)C(CC)Nc1ccccc1)c1c(O)cc(O)c(C)c1O (stereo not shown) [k-3:H-7]
[1]
  proliferation rate (%): 126.34%

## CCOc1ccc(NCC(=O)NN=C(CC)c2c(O)cc(O)c(C)c2O)cc1 [k-3:H-9]
[1]
  proliferation rate (%): 129.93%

## Cc1c(O)ccc(C(CC(C)C)=NNC(=O)CNc2ccccc2)c1O [k-5:H-1]
[1]
  proliferation rate (%): 148.88%

## Cc1ccccc1NCC(=O)NN=C(CC(C)C)c1ccc(O)c(C)c1O [k-5:H-2]
[1]
  proliferation rate (%): 133.96%

## Cc1cccc(NCC(=O)NN=C(CC(C)C)c2ccc(O)c(C)c2O)c1 [k-5:H-3]
[1]
  proliferation rate (%): 146.44%

## Cc1ccc(NCC(=O)NN=C(CC(C)C)c2ccc(O)c(C)c2O)cc1 [k-5:H-4]
[1]
  proliferation rate (%): 114.76%

## Cc1c(O)ccc(C(CC(C)C)=NNC(=O)CNc2ccc(F)cc2)c1O [k-5:H-5]
[1]
  proliferation rate (%): 145.4%

## Cc1c(O)ccc(C(CC(C)C)=NNC(=O)CNc2cccc3ccccc23)c1O [k-5:H-6]
[1]
  proliferation rate (%): 115.2%

## CCC(Nc1ccccc1)C(=O)NN=C(CC(C)C)c1ccc(O)c(C)c1O (stereo not shown) [k-5:H-7]
[1]
  proliferation rate (%): 130.63%

## CCOc1ccc(NCC(=O)NN=C(CC(C)C)c2ccc(O)c(C)c2O)cc1 [k-5:H-9]
[1]
  proliferation rate (%): 38.38%

Reference: US20200165194A1, “ADDITIVE COMPOSITION FOR CULTURE MEDIUM, ADDITIVE COMPOUND FOR CULTURE MEDIUM, AND METHOD FOR CULTURE OF CELLS OR TISSUE USING SAME” (NISSAN CHEMICAL CORPORATION, priority 2017, published 2020)
